# Experiment: Partitioning (partition coefficient, Kp) of hydroformylation products and hydroformylation solvent between hydroformylation solvent phase and alkanol/water extraction solution phase
# Assay type: physicochemical
# Excerpt: The extraction process described herein is the equilibration of a particular compound dissolving into two separate liquid phases. The effectiveness of the present extraction process may be measured in terms of the partition coefficient (Kp) for a compound "X" which is defined as: [formula] […] High Kp values give high extraction efficiencies requiring lower amounts of extraction solution. Similarly, it is desirable that the Kp of the hydroformylation solvent be a low value. This simplifies purification of the aldehyde products down-stream. In the hydroformylation of diolefins to dialdehydes, it also is desirable to have Kp values for the dialdehyde products larger than the Kp values of the intermediate mono-aldehyde mono-olefin (formyl-olefin) intermediate formed in the hydroformylation reaction. This permits recycling of the formyl-olefin to the hydroformylation reactor in the hydroformylation solvent for further reaction to the desired dialdehyde product, while selectively extracting the desired di-aldehyde product. Likewise, for the same reason, it is desirable to have low Kp values for the olefin or polyolefin feedstocks used in the process.
# The extraction examples were carried out in a 300 mL, 3-neck, glass flask equipped with a Teflon magnetic stir bar, a thermometer to measure the temperature of the liquid, a septum for the use of a syringe, a heating mantle and a nitrogen bubbler blanket for the system. […] […] The mixture was stirred at 25° C. for 30 minutes to reach equilibrium, stirring was stopped, and the mixture was allowed to separate into 2 layers (phases) over a 30 minute period of time. […] Samples of each phase were taken with a syringe and chromatographed on a Hewlett Packard Model 5730 capillary FID gas chromatograph. The instrument used a 30 meter DB-1 column (Supelco.) with a programming rate of a 4 minute hold at 70° C. with a programming rate of 8° C./minute to 250° C. The calculations for the weights of hydroformylation products in each phase were carried out using standard procedures using the dodecane as an internal standard for the catalyst layer and methanol as the internal standard for the aqueous layer. The initial volumes of the two phases were used for estimation of the volumes of the two phases at equilibrium to obtain the concentrations of the products in each phase.
# The partition coefficients (Kp) were calculated for the C9-enal and C10-dial products for equilibrium between the dodecane hydroformylation solvent and the extraction solution phases at 25° C.
# The two phases in the flask were heated to and maintained at 53° C. with stirring for 30 minutes to reach equilibrium. The mixture was allowed to separate into 2 layers at 53° C. and each layer was sampled and analyzed as described above. […] The partitioning procedure was repeated at 70° C.
smiles,measurement,setting,value
CC(C)c1ccc(C(C)C)cc1 [p-diisopropylbenzene],Partition Coefficient,"Example 3, Ref. Ex. 19, MeOH:water 3:1, 29° C.",0.075
same,Partition Coefficient,"Example 4, Ref. Ex. 19, MeOH:water 3:1, 58° C.",0.118
same,Partition Coefficient,"Example 5, Ref. Ex. 19, MeOH:water 1.5:1, 58° C.",0.050
same,Partition Coefficient,"Example 6, Ref. Ex. 19, MeOH:water 1.5:1, 31° C.",0.018
same,Partition Coefficient,"Example 18, Ref. Ex. 24, EtOH:water 7:4, 52° C.",0.033
same,Partition Coefficient,"Example 19, Ref. Ex. 24, EtOH:water 7:4, 32° C.",0.009
same,Partition Coefficient,"Example 24, Ref. Ex. 19, MeOH:water 3:1, 29° C.",0.075
same,Partition Coefficient,"Example 25, Ref. Ex. 19, MeOH:water 3:1, 58° C.",0.118
same,Partition Coefficient,"Example 26, Ref. Ex. 19, MeOH:water 1.5:1, 58° C.",0.050
same,Partition Coefficient,"Example 27, Ref. Ex. 19, MeOH:water 1.5:1, 31° C.",0.018
same,Partition Coefficient,"Example 28, Ref. Ex. 24, EtOH:water 3:1, 48° C.",0.298
same,Partition Coefficient,"Example 29, Ref. Ex. 24, EtOH:water 3:1, 33° C.",0.229
same,Partition Coefficient,"Example 30, Ref. Ex. 24, EtOH:water 7:4, 52° C.",0.033
same,Partition Coefficient,"Example 31, methanol/water 37/12 mL, 50° C., Na 0",0.096
same,Partition Coefficient,"Example 32, 50° C., Na 82 mg/L as 2-ethylhexanoate",0.125
same,Partition Coefficient,"Example 33, 50° C., Na 164 mg/L as 2-ethylhexanoate",0.115
same,Partition Coefficient,"Example 34, 50° C., Na 327 mg/L as 2-ethylhexanoate",0.131
same,Partition Coefficient,"Example 35, 50° C., Na 653 mg/L as 2-ethylhexanoate",0.137
same,Partition Coefficient,"Example 36, 50° C., Na 1307 mg/L as 2-ethylhexanoate",0.063
same,Partition Coefficient,"Example 37, methanol/water 37/12 mL, 50° C., Na 0",0.064
same,Partition Coefficient,"Example 38, 50° C., Na 82 mg/L as oleate",0.083
same,Partition Coefficient,"Example 39, 50° C., Na 164 mg/L as oleate",0.062
same,Partition Coefficient,"Example 40, 50° C., Na 327 mg/L as oleate",0.083
same,Partition Coefficient,"Example 41, 50° C., Na 653 mg/L as oleate",0.052
same,Partition Coefficient,"Example 42, 50° C., Na 1307 mg/L as oleate",0.063
same,Partition Coefficient,"Example 43, methanol/water 37/12 mL, 50° C., Na 0",0.074
same,Partition Coefficient,"Example 44, 50° C., Na 82 mg/L as n butyrate",0.063
same,Partition Coefficient,"Example 45, 50° C., Na 164 mg/L as n butyrate",0.073
same,Partition Coefficient,"Example 46, 50° C., Na 327 mg/L as n butyrate",0.053
same,Partition Coefficient,"Example 47, 50° C., Na 653 mg/L as n butyrate",0.051
same,Partition Coefficient,"Example 48, 50° C., Na 1307 mg/L as n butyrate",0.038
same,Partition Coefficient,"Example 49, methanol/water 37/27 mL, Na 0",0.0164
same,Partition Coefficient,"Example 50, methanol/water 37/27 mL, Na 100 as oleate",0.0210
same,Partition Coefficient,"Example 51, methanol/water 37/27 mL, Na 200 as oleate",0.0210
same,Partition Coefficients,"Example 52, Ref. Ex. 1, MeOH:water 3:1, 50° C., Na 0",0.115
same,Partition Coefficients,"Example 54, Ref. Ex. 1, Na 164 mg/L",0.073
same,Partition Coefficients,"Example 56, Ref. Ex. 11, Na 0",0.081
same,Partition Coefficients,"Example 58, Ref. Ex. 11, Na 164 mg/L",0.073
same,Partition Coefficients,"Example 60, Ref. Ex. 12, Na 0",0.071
same,Partition Coefficients,"Example 62, Ref. Ex. 12, Na 164 mg/L",0.067
same,Partition Coefficients,"Example 64, Ref. Ex. 7, Na 0",0.056
same,Partition Coefficients,"Example 66, Ref. Ex. 7, Na 164 mg/L",0.072
same,Partition Coefficients,"Example 68, Ref. Ex. 13, Na 0",0.076
same,Partition Coefficients,"Example 70, Ref. Ex. 13, Na 164 mg/L",0.060
same,Partition Coefficient,"Example 79, VCH product, Ref. Ex. 3, 40 mL methanol, 10 mL water, 50° C.",0.0859
same,Partition Coefficient,"Example 80, as Example 79 plus 10 mL water",0.0233
same,Partition Coefficient,"Example 81, as Example 80 plus 10 mL water",0.0050
same,Partition Coefficient,"Example 82, as Example 81 plus 10 mL water",0.0017
same,Partition Coefficient,"Example 83, DCPD product, Ref. Ex. 4, procedure of Examples 79-82",0.0724
same,Partition Coefficient,"Example 84, DCPD product, Ref. Ex. 4, procedure of Examples 79-82",0.0469
same,Partition Coefficient,"Example 85, DCPD product, Ref. Ex. 4, procedure of Examples 79-82",0.0269
same,Partition Coefficient,"Example 86, CDDT product, Ref. Ex. 2, 37 mL methanol, 12 mL water, 25° C.",0.0297
same,Partition Coefficient,"Example 87, as Example 86 plus 10 mL methanol",0.077
same,Partition Coefficient,"Example C-7, Ref. Ex. 19, DEG:water 3:1, 30° C.",0.128
same,Partition Coefficient,"Example C-8, Ref. Ex. 19, DEG:water 1.5:1, 25° C.",0.030
same,Partition Coefficient,"Example C-9, Ref. Ex. 10, PrOH:water 3:1, 50° C.",0.055
same,Partition Coefficient,"Example C-10, Ref. Ex. 10, PrOH:water 1.5:1, 50° C.",0.018
same,Partition Coefficient,"Example C-11, Ref. Ex. 10, PrOH:water 1:1, 50° C.",0.013
same,Partition Coefficient,"Example C-16, Ref. Ex. 19, DEG, no water, 58° C.",0.128
same,Partition Coefficient,"Example C-17, Ref. Ex. 19, DEG, no water, 33° C.",0.128
same,Partition Coefficient,"Example C-18, Ref. Ex. 19, DEG:water 3:1, 30° C.",0.030
same,Partition Coefficient,"Example C-19, Ref. Ex. 19, DEG:water 3:1, 60° C.",0.014
same,Partition Coefficient,"Example C-20, Ref. Ex. 19, DEG:water 1.5:1, 60° C.",0.0061
same,Partition Coefficient,"Example C-21, Ref. Ex. 19, DEG:water 1.5:1, 25° C.",0.0030
same,Partition Coefficient,"Example C-22, Ref. Ex. 10, PrOH:water 3:1, 50° C.",0.055
same,Partition Coefficient,"Example C-23, Ref. Ex. 10, PrOH:water 1.5:1, 50° C.",0.0182
same,Partition Coefficient,"Example C-24, Ref. Ex. 10, PrOH:water 1:1, 50° C.",0.0132

# Reference: patent US5138101A, “Recovery of high-boiling aldehydes from rhodium-catalyzed hydroformylation processes” (Eastman Kodak Company, priority 1991, dated 1992)
